Measured values published in publication PMC5218480 (PLoS ONE, 2017).

Tested on: MV-4-11 cells
Test: Gene expression microarray analysis (Affymetrix PrimeView) and GSEA
Format: cell-based, human
Set-up: RFU PODN (11730768_x_at) / Fold change /veh PODN (11730768_x_at) / RFU LINC00158 (11744669_a_at) / Fold change /veh LINC00158 (11744669_a_at) / RFU DUSP10 (11751237_a_at) / Fold change /veh DUSP10 (11751237_a_at) / RFU ID3 (11757404_x_at) / Fold change /veh ID3 (11757404_x_at) / RFU PLEKHG5 (11737974_s_at) / Fold change /veh PLEKHG5 (11737974_s_at) / RFU LRRC4B (11730491_at) / Fold change /veh LRRC4B (11730491_at) / RFU GIMAP4 (11747438_a_at) / Fold change /veh GIMAP4 (11747438_a_at) / RFU KRT8 (11758183_x_at) / Fold change /veh KRT8 (11758183_x_at) / RFU CNN1 (11734310_a_at) / Fold change /veh CNN1 (11734310_a_at) / RFU VPS37D (11726825_at) / Fold change /veh VPS37D (11726825_at) / RFU C10orf10 (11716522_x_at) / Fold change /veh C10orf10 (11716522_x_at) / RFU KIR2DL2 /// KIR2DL4 /// KIR2DL5A /// KIR2DL5B /// KIR2DS1 /// KIR2DS2 /// KIR2DS3 /// KIR2DS4 /// KIR3DL3 /// KIR3DL3 /// KIR3DS1 (11738374_at) / Fold change /veh KIR2DL2 /// KIR2DL4 /// KIR2DL5A /// KIR2DL5B /// KIR2DS1 /// KIR2DS2 /// KIR2DS3 /// KIR2DS4 /// KIR3DL3 /// KIR3DL3 /// KIR3DS1 (11738374_at) / RFU C1QL1 (11718748_at) / Fold change /veh C1QL1 (11718748_at) / RFU TMPRSS4 (11747572_a_at) / Fold change /veh TMPRSS4 (11747572_a_at) / RFU HAMP (11756126_x_at) / Fold change /veh HAMP (11756126_x_at) / RFU RNFT2 (11725882_a_at) / Fold change /veh RNFT2 (11725882_a_at) / RFU NR4A2 (11747474_a_at) / Fold change /veh NR4A2 (11747474_a_at) / RFU ABCC12 (11746883_a_at) / Fold change /veh ABCC12 (11746883_a_at) / RFU TMEM136 (11760407_x_at) / Fold change /veh TMEM136 (11760407_x_at) / RFU CLDN22 /// WWC2 (11732394_at) / Fold change /veh CLDN22 /// WWC2 (11732394_at) / RFU HLA-DPB1 (11760878_x_at) / Fold change /veh HLA-DPB1 (11760878_x_at) / RFU SPINT1 (11716480_a_at) / Fold change /veh SPINT1 (11716480_a_at) / RFU GAP43 (11754022_s_at) / Fold change /veh GAP43 (11754022_s_at) / RFU A4GNT (11735810_at) / Fold change /veh A4GNT (11735810_at) / RFU PRB3 (11715151_x_at) / Fold change /veh PRB3 (11715151_x_at) / RFU TUBB4B (11761932_at) / Fold change /veh TUBB4B (11761932_at) / RFU CAPN14 (11732068_a_at) / Fold change /veh CAPN14 (11732068_a_at) / RFU TMCC2 (11721928_a_at) / Fold change /veh TMCC2 (11721928_a_at) / RFU IRGQ (11745062_a_at) / Fold change /veh IRGQ (11745062_a_at) / RFU FAM174B (11720279_a_at) / Fold change /veh FAM174B (11720279_a_at) / RFU TMPRSS4 (11748680_a_at) / Fold change /veh TMPRSS4 (11748680_a_at) / RFU FAM212B (11763350_a_at) / Fold change /veh FAM212B (11763350_a_at) / RFU PLEKHG5 (11743358_a_at) / Fold change /veh PLEKHG5 (11743358_a_at) / RFU ZSCAN30 (11745921_a_at) / Fold change /veh ZSCAN30 (11745921_a_at) / RFU CMKLR1 (11741424_a_at) / Fold change /veh CMKLR1 (11741424_a_at) / RFU LOC101060620 /// MAPK8IP1 (11723275_at) / Fold change /veh LOC101060620 /// MAPK8IP1 (11723275_at) / RFU SPTSSB (11747773_x_at) / Fold change /veh SPTSSB (11747773_x_at) / RFU PRSS12 (11739890_at) / Fold change /veh PRSS12 (11739890_at) / RFU BIN1 (11741810_x_at) / Fold change /veh BIN1 (11741810_x_at) / RFU WNT11 (11732464_a_at) / Fold change /veh WNT11 (11732464_a_at) / RFU C10orf10 (11716521_a_at) / Fold change /veh C10orf10 (11716521_a_at) / RFU C5orf56 (11738089_at) / Fold change /veh C5orf56 (11738089_at) / RFU CYB561 (11721691_x_at) / Fold change /veh CYB561 (11721691_x_at) / RFU ANKRD19P (11752326_a_at) / Fold change /veh ANKRD19P (11752326_a_at) / RFU OR2T12 /// OR2T33 /// OR2T8 (11738714_s_at) / Fold change /veh OR2T12 /// OR2T33 /// OR2T8 (11738714_s_at) / RFU VCAN (11748164_a_at) / Fold change /veh VCAN (11748164_a_at) / RFU JSRP1 (11732532_at) / Fold change /veh JSRP1 (11732532_at) / RFU KRTAP10-11 (11738290_x_at) / Fold change /veh KRTAP10-11 (11738290_x_at) / RFU MYO3A (11730013_a_at) / Fold change /veh MYO3A (11730013_a_at) / RFU EBF3 (11725865_a_at) / Fold change /veh EBF3 (11725865_a_at) / RFU CAMK2N1 (11719241_x_at) / Fold change /veh CAMK2N1 (11719241_x_at) / RFU C5orf56 (11738088_a_at) / Fold change /veh C5orf56 (11738088_a_at) / RFU OLFML3 (11715873_a_at) / Fold change /veh OLFML3 (11715873_a_at) / RFU LOC100653217 /// NTM (11731650_a_at) / Fold change /veh LOC100653217 /// NTM (11731650_a_at) / RFU MAPK11 (11762145_a_at) / Fold change /veh MAPK11 (11762145_a_at) / RFU FIZ1 (11724087_x_at) / Fold change /veh FIZ1 (11724087_x_at) / RFU OASL (11726364_x_at) / Fold change /veh OASL (11726364_x_at) / RFU SOX15 (11748057_x_at) / Fold change /veh SOX15 (11748057_x_at) / RFU CD79A (11719716_a_at) / Fold change /veh CD79A (11719716_a_at) / RFU HIST1H1D (11736915_at) / Fold change /veh HIST1H1D (11736915_at) / RFU CASKIN2 (11723855_a_at) / Fold change /veh CASKIN2 (11723855_a_at) / RFU LOC730098 (11760151_x_at) / Fold change /veh LOC730098 (11760151_x_at) / RFU OR4N2 (11742367_at) / Fold change /veh OR4N2 (11742367_at) / RFU PRRT2 (11749266_a_at) / Fold change /veh PRRT2 (11749266_a_at) / RFU SNX32 (11753110_a_at) / Fold change /veh SNX32 (11753110_a_at) / RFU CDHR5 (11726645_a_at) / Fold change /veh CDHR5 (11726645_a_at) / RFU RCAN1 (11760418_a_at) / Fold change /veh RCAN1 (11760418_a_at) / RFU FAM167A (11723789_a_at) / Fold change /veh FAM167A (11723789_a_at) / RFU FAM26E (11764081_at) / Fold change /veh FAM26E (11764081_at) / RFU ISYNA1 (11749810_s_at) / Fold change /veh ISYNA1 (11749810_s_at) / RFU ACY1 (11761880_at) / Fold change /veh ACY1 (11761880_at) / RFU 11764098_at / Fold change /veh 11764098_at / RFU SAMD14 (11745864_x_at) / Fold change /veh SAMD14 (11745864_x_at) / RFU NPB (11741838_a_at) / Fold change /veh NPB (11741838_a_at) / RFU TMPRSS6 (11731388_a_at) / Fold change /veh TMPRSS6 (11731388_a_at) / RFU KRTAP10-2 (11738614_at) / Fold change /veh KRTAP10-2 (11738614_at) / RFU ARHGAP8 /// PRR5-ARHGAP8 (11727945_x_at) / Fold change /veh ARHGAP8 /// PRR5-ARHGAP8 (11727945_x_at) / RFU KRTAP5-7 /// NADSYN1 (11734609_at) / Fold change /veh KRTAP5-7 /// NADSYN1 (11734609_at) / RFU RASL12 (11751679_a_at) / Fold change /veh RASL12 (11751679_a_at) / RFU CDKN2B (11736163_a_at) / Fold change /veh CDKN2B (11736163_a_at) / RFU PRF1 (11729649_at) / Fold change /veh PRF1 (11729649_at) / RFU, ZNF638 /// ZNF638-IT1 / Fold change vs veh, ZNF638 /// ZNF638-IT1 / RFU, PANK3 / Fold change vs veh, PANK3 / RFU, SH3YL1 / Fold change vs veh, SH3YL1 / RFU, ZEB2 / Fold change vs veh, ZEB2 / RFU, NRIP1 / Fold change vs veh, NRIP1 / RFU, PTTG1IP / Fold change vs veh, PTTG1IP / RFU, CAPN2 / Fold change vs veh, CAPN2 / RFU, MED14 / Fold change vs veh, MED14 / RFU, SNORA58 / Fold change vs veh, SNORA58 / RFU, C1orf63 / Fold change vs veh, C1orf63 / RFU, LRRFIP1 / Fold change vs veh, LRRFIP1 / RFU, NDUFAF7 / Fold change vs veh, NDUFAF7 / RFU, SLC12A2 / Fold change vs veh, SLC12A2 / RFU, IBTK / Fold change vs veh, IBTK / RFU, ESF1 / Fold change vs veh, ESF1 / Fold change vs veh, TMEM50B / RFU, TAOK1 / Fold change vs veh, TAOK1 / RFU, ACBD3 / Fold change vs veh, ACBD3 / RFU, TMA16 / Fold change vs veh, TMA16 / RFU, RWDD3 / Fold change vs veh, RWDD3 / RFU, BCAT1 / Fold change vs veh, BCAT1 / RFU, EDEM3 / Fold change vs veh, EDEM3 / RFU, TMEM33 / Fold change vs veh, TMEM33 / RFU, WDR75 / Fold change vs veh, WDR75 / RFU, AHCTF1 / Fold change vs veh, AHCTF1 / RFU, TFRC / Fold change vs veh, TFRC / RFU, ZDHHC17 / Fold change vs veh, ZDHHC17 / RFU, NOM1 / Fold change vs veh, NOM1 / RFU, ARL8B / Fold change vs veh, ARL8B / RFU, ZBTB11 / Fold change vs veh, ZBTB11 / RFU, TAMM41 / Fold change vs veh, TAMM41 / RFU, KIAA1704 /// LOC100996395 / Fold change vs veh, KIAA1704 /// LOC100996395 / RFU, ING1 / Fold change vs veh, ING1 / RFU, TRMT61B / Fold change vs veh, TRMT61B / RFU, FUBP3 / Fold change vs veh, FUBP3 / RFU, TP53 / Fold change vs veh, TP53 / RFU, TNKS2 / Fold change vs veh, TNKS2 / RFU, ZFP14 / Fold change vs veh, ZFP14 / RFU, ACTR2 / Fold change vs veh, ACTR2 / RFU, PPP3R1 / Fold change vs veh, PPP3R1 / RFU, PIK3R1 / Fold change vs veh, PIK3R1 / RFU, HNRNPA1 / Fold change vs veh, HNRNPA1 / RFU, RNF170 / Fold change vs veh, RNF170 / RFU, ZNF28 / Fold change vs veh, ZNF28 / RFU, RNGTT / Fold change vs veh, RNGTT / RFU, OGT / Fold change vs veh, OGT / RFU, BRD1 / Fold change vs veh, BRD1 / RFU, MARS / Fold change vs veh, MARS / RFU, ZNF655 / Fold change vs veh, ZNF655 / RFU, FAHD1 / Fold change vs veh, FAHD1 / RFU, BDP1 / Fold change vs veh, BDP1 / RFU, LRRCC1 / Fold change vs veh, LRRCC1 / RFU, ARID1A / Fold change vs veh, ARID1A / RFU, ZNF146 / Fold change vs veh, ZNF146 / RFU, ZNF330 / Fold change vs veh, ZNF330 / RFU, GPN3 / Fold change vs veh, GPN3 / RFU, C9orf123 / Fold change vs veh, C9orf123 / RFU, N4BP2L2 / Fold change vs veh, N4BP2L2 / RFU, ARFIP1 / Fold change vs veh, ARFIP1 / RFU, FAM179B / Fold change vs veh, FAM179B / RFU, BCL10 / Fold change vs veh, BCL10 / RFU, UHRF1BP1L / Fold change vs veh, UHRF1BP1L / RFU, BET1 / Fold change vs veh, BET1 / RFU, CNOT2 / Fold change vs veh, CNOT2 / RFU, ZNF268 / Fold change vs veh, ZNF268 / Fold change vs veh, ZNF507 / RFU, DGCR2 / Fold change vs veh, DGCR2 / RFU, WDSUB1 / Fold change vs veh, WDSUB1 / Fold change vs veh, HSP90B1 /// MIR3652 / RFU, ADSS / Fold change vs veh, ADSS / RFU, GK / Fold change vs veh, GK / RFU, ZNF148 / Fold change vs veh, ZNF148 / RFU, TAF9 / Fold change vs veh, TAF9 / RFU, SLC1A5 / Fold change vs veh, SLC1A5 / RFU, SLMO2 / Fold change vs veh, SLMO2 / RFU, ABCC4 / Fold change vs veh, ABCC4 / RFU, LOC101060439 /// RAP1B / Fold change vs veh, LOC101060439 /// RAP1B / RFU, RFX7 / Fold change vs veh, RFX7 / RFU, GTPBP10 / Fold change vs veh, GTPBP10 / RFU, CNEP1R1 / Fold change vs veh, CNEP1R1 / RFU, BIVM-ERCC5 /// ERCC5 / Fold change vs veh, BIVM-ERCC5 /// ERCC5 / RFU, ILF3 / Fold change vs veh, ILF3 / RFU 11762660_at / Fold change /veh 11762660_at / RFU VCAN (11757783_s_at) / Fold change /veh VCAN (11757783_s_at) / RFU DDX43 (11728927_at) / Fold change /veh DDX43 (11728927_at) / RFU KRT8 (11758188_x_at) / Fold change /veh KRT8 (11758188_x_at) / RFU NKD1 (11759106_at) / Fold change /veh NKD1 (11759106_at) / RFU SRD5A1 (11742802_a_at) / Fold change /veh SRD5A1 (11742802_a_at) / RFU TPSAB1 /// TPSB2 (11721975_s_at) / Fold change /veh TPSAB1 /// TPSB2 (11721975_s_at) / RFU GSTM3 (11746129_a_at) / Fold change /veh GSTM3 (11746129_a_at) / RFU IL23R (11737362_x_at) / Fold change /veh IL23R (11737362_x_at) / RFU TMEM51 (11727254_a_at) / Fold change /veh TMEM51 (11727254_a_at) / RFU PIWIL2 (11732686_x_at) / Fold change /veh PIWIL2 (11732686_x_at) / RFU ORM1 (11744905_x_at) / Fold change /veh ORM1 (11744905_x_at) / RFU CCDC152 (11743942_at) / Fold change /veh CCDC152 (11743942_at) / RFU ECM1 (11717891_a_at) / Fold change /veh ECM1 (11717891_a_at) / RFU IL23R (11748794_a_at) / Fold change /veh IL23R (11748794_a_at) / RFU TNFAIP8L3 (11732012_x_at) / Fold change /veh TNFAIP8L3 (11732012_x_at) / RFU MBOAT4 (11741988_at) / Fold change /veh MBOAT4 (11741988_at) / RFU 11764193_at / Fold change /veh 11764193_at / RFU TMEM53 (11763286_at) / Fold change /veh TMEM53 (11763286_at) / RFU MAGEB2 (11727129_at) / Fold change /veh MAGEB2 (11727129_at) / RFU TMEM200A (11744735_a_at) / Fold change /veh TMEM200A (11744735_a_at) / RFU CCDC152 (11751479_a_at) / Fold change /veh CCDC152 (11751479_a_at) / RFU FAM211A (11726209_a_at) / Fold change /veh FAM211A (11726209_a_at) / RFU RGS16 (11746705_a_at) / Fold change /veh RGS16 (11746705_a_at) / RFU VCAN (11755009_s_at) / Fold change /veh VCAN (11755009_s_at) / RFU RHOB (11743442_s_at) / Fold change /veh RHOB (11743442_s_at) / RFU RGS16 (11720943_a_at) / Fold change /veh RGS16 (11720943_a_at) / RFU RGS16 (11720944_at) / Fold change /veh RGS16 (11720944_at) / RFU, VPS4B / Fold change vs veh, VPS4B / RFU, CREB1 / Fold change vs veh, CREB1 / RFU, DNAJC13 / Fold change vs veh, DNAJC13 / RFU, GNAQ / Fold change vs veh, GNAQ / RFU, CDK5R1 / Fold change vs veh, CDK5R1 / RFU, ZRANB3 / Fold change vs veh, ZRANB3 / RFU, CUL4A / Fold change vs veh, CUL4A / RFU, CCNY / Fold change vs veh, CCNY / RFU, UFL1 / Fold change vs veh, UFL1 / RFU, COG3 / Fold change vs veh, COG3 / RFU, DIAPH2 / Fold change vs veh, DIAPH2 / RFU, SKA2 / Fold change vs veh, SKA2 / RFU, AFF3 / Fold change vs veh, AFF3 / RFU, LMF1 / Fold change vs veh, LMF1 / RFU, IPO11 / Fold change vs veh, IPO11 / RFU, DFFB / Fold change vs veh, DFFB / RFU, FOXP1 / Fold change vs veh, FOXP1 / RFU, CARD8 / Fold change vs veh, CARD8 / RFU, STRN3 / Fold change vs veh, STRN3 / RFU, ADK / Fold change vs veh, ADK / RFU, RASSF2 / Fold change vs veh, RASSF2 / RFU, WIPF1 / Fold change vs veh, WIPF1 / RFU, LARP1B / Fold change vs veh, LARP1B / RFU, RASA1 / Fold change vs veh, RASA1 / RFU, RB1 / Fold change vs veh, RB1 / RFU, PPFIA1 / Fold change vs veh, PPFIA1 / RFU, MAT2A / Fold change vs veh, MAT2A / RFU, CCT5 / Fold change vs veh, CCT5 / RFU, WDR92 / Fold change vs veh, WDR92 / RFU, CUX1 / Fold change vs veh, CUX1 / RFU, TTC7A / Fold change vs veh, TTC7A / RFU, TMEM135 / Fold change vs veh, TMEM135 / RFU, DEPTOR / Fold change vs veh, DEPTOR / RFU, CPM / Fold change vs veh, CPM / RFU, DNAJB6 / Fold change vs veh, DNAJB6 / RFU, CACNA2D3 / Fold change vs veh, CACNA2D3 / RFU, DTX4 / Fold change vs veh, DTX4 / RFU, TFCP2 / Fold change vs veh, TFCP2 / RFU, GMCL1 /// GMCL1P1 / Fold change vs veh, GMCL1 /// GMCL1P1 / RFU, AEBP2 / Fold change vs veh, AEBP2 / RFU, SNHG1 /// SNORD22 /// SNORD25 /// SNORD26 /// SNORD27 /// SNORD28 /// SNORD29 /// SNORD31 / Fold change vs veh, SNHG1 /// SNORD22 /// SNORD25 /// SNORD26 /// SNORD27 /// SNORD28 /// SNORD29 /// SNORD31 / Fold change (Aza/veh), C12orf56 (ProbeSet 11735607_a_at) / Fold change (ACY-1035/veh), C12orf56 (ProbeSet 11735607_a_at) / Fold change (Aza/veh), FGFR1OP (ProbeSet 11751329_s_at) / Fold change (ACY-1035/veh), FGFR1OP (ProbeSet 11751329_s_at) / Fold change (Aza/veh), VPS36 (ProbeSet 11739960_a_at) / Fold change (ACY-1035/veh), VPS36 (ProbeSet 11739960_a_at) / RFU SYPL1 (11715823_x_at) / Fold change /veh SYPL1 (11715823_x_at) / RFU IGFBP7 (11715501_s_at) / Fold change /veh IGFBP7 (11715501_s_at) / RFU REEP3 (11722064_at) / Fold change /veh REEP3 (11722064_at) / RFU IGLL1 (11728026_x_at) / Fold change /veh IGLL1 (11728026_x_at): dose or concentration left out as unconfirmed
Conditions: MV-4-11 cells, 48 hours

## Nc1ccc(-c2cccs2)cc1NC(=O)c1ccc2c(c1)cc(C1CC1)n2CCN1CCOCC1 [ACY-1035]
  RFU ECM1 (11717891_a_at): 18.49 RFU
